Assay [1] concerns A549. Description: Antiproliferative activity against human A549 cells over-expressing LSD1 assessed as reduction in cell viability measured after 72 hrs by MTT assay. Particulars: A549, 72 h. Background: Tetrazolium assays rely on reduction of a dye to a coloured formazan, in cell work by metabolically active cells.
The test system of assay [2] is NCI-H1299. Put plainly: Antiproliferative activity against human NCI-H1299 cells over-expressing LSD1 assessed as reduction in cell viability measured after 72 hrs by MTT assay. Particulars: NCI-H1299, 72 h.
Assay [3] relates to SMMC-7721. Put plainly: Antiproliferative activity against human SMMC7721 over-expressing LSD1 cells assessed as reduction in cell viability measured after 72 hrs by MTT assay. Conditions: SMMC-7721, 72 h.
For assay [4], the system named is A2780. Description: Antiproliferative activity against human A2780 cells over-expressing LSD1 assessed as reduction in cell viability measured after 72 hrs by MTT assay. Conditions: A2780, 72 h.
Assay [5] concerns HCT-116. Description: Antiproliferative activity against human HCT116 cells over-expressing LSD1 assessed as reduction in cell viability measured after 72 hrs by MTT assay. Conditions: HCT-116, 72 h.
The subject of assay [6] is MCF7. Description: Antiproliferative activity against human MCF7 cells over-expressing LSD1 assessed as reduction in cell viability measured after 72 hrs by MTT assay. Particulars: MCF7, 72 h.
Assay [7] deals with MDA-MB-231. Put plainly: Antiproliferative activity against human MDA-MB-231 cells over-expressing LSD1 assessed as reduction in cell viability measured after 72 hrs by MTT assay. Particulars: MDA-MB-231, 72 h.
For assay [8], the system named is PC-3. Description: Antiproliferative activity against human PC3 cells over-expressing LSD1 assessed as reduction in cell viability measured after 72 hrs by MTT assay. Conditions: PC-3, 72 h.
Assay [9] has as its system DU-145. Put plainly: Antiproliferative activity against human DU145 cells over-expressing LSD1 assessed as reduction in cell viability measured after 72 hrs by MTT assay. Particulars: DU-145, 72 h.
Assay [10] concerns A549. Description: Antiproliferative activity against human A549 cells over-expressing LSD1 assessed as reduction in cell viability measured after 96 hrs by MTT assay. Particulars: A549, 96 h.
The subject of assay [11] is NCI-H1299. Put plainly: Antiproliferative activity against human NCI-H1299 cells over-expressing LSD1 assessed as reduction in cell viability measured after 96 hrs by MTT assay. Particulars: NCI-H1299, 96 h.
Assay [12] deals with SMMC-7721. Description: Antiproliferative activity against human SMMC7721 cells over-expressing LSD1 assessed as reduction in cell viability measured after 96 hrs by MTT assay. Particulars: SMMC-7721, 96 h.
Assay [13] concerns A2780. Put plainly: Antiproliferative activity against human A2780 cells over-expressing LSD1 assessed as reduction in cell viability measured after 96 hrs by MTT assay. Conditions: A2780, 96 h.
Assay [14] relates to HCT-116. Put plainly: Antiproliferative activity against human HCT116 cells over-expressing LSD1 assessed as reduction in cell viability measured after 96 hrs by MTT assay. Conditions: HCT-116, 96 h.
Assay [15] deals with MCF7. Description: Antiproliferative activity against human MCF7 cells over-expressing LSD1 assessed as reduction in cell viability measured after 96 hrs by MTT assay. Particulars: MCF7, 96 h.
Assay [16] has as its system MDA-MB-231. Description: Antiproliferative activity against human MDA-MB-231 cells over-expressing LSD1 assessed as reduction in cell viability measured after 96 hrs by MTT assay. Conditions: MDA-MB-231, 96 h.
Assay [17] concerns PC-3. Put plainly: Antiproliferative activity against human PC3 cells over-expressing LSD1 assessed as reduction in cell viability measured after 96 hrs by MTT assay. Particulars: PC-3, 96 h.
The subject of assay [18] is DU-145. Put plainly: Antiproliferative activity against human DU145 cells over-expressing LSD1 assessed as reduction in cell viability measured after 96 hrs by MTT assay. Particulars: DU-145, 96 h.

From ChEMBL document CHEMBL4431347, “Synthesis and biological evaluation of novel (E)-N'-(2,3-dihydro-1H-inden-1-ylidene) benzohydrazides as potent LSD1 inhibitors” (Bioorg Med Chem Lett, 2016) come the findings set out here.

As usually defined, the IC50 is the midpoint of a concentration-inhibition curve. Regarding `O=C(N/N=C1\CCc2c(Cl)ccc(O)c21)c1cccc(S(=O)(=O)N2CCOCC2)c1`, the IC50 in assay [1] was determined as 780 nM; in assay [2], 3330 nM; in assay [3] it was 3160 nM; in [4] it was 1130 nM; in assay [5], 480 nM; in assay [6], 410 nM. In addition, the IC50 in assay [7] was 710 nM; in assay [8], 2450 nM; in assay [9] it was 2950 nM; in assay [10], 400 nM; in assay [11], 980 nM; in assay [12], 1220 nM. Further, the IC50 was 790 nM in [13]; 270 nM in assay [14]; 300 nM in [15]; 460 nM in [16]; 760 nM in assay [17]; 180 nM in assay [18].
Regarding `C/C(=N\NC(=O)c1cccc(S(=O)(=O)N2CCOCC2)c1)c1cc(Cl)ccc1O`, the IC50 in [1] stood at 2690 nM; in assay [2], 3010 nM; in assay [3], 15800 nM; in assay [4] it was 2140 nM; in assay [5] it was 650 nM; in assay [6], 440 nM. For the same compound, the IC50 in [7] turned out to be 1400 nM; in assay [8], 19700 nM; in [9], 13100 nM; in assay [10] it was 830 nM; in assay [11], 1730 nM; in assay [12] it was 5360 nM. Also, the 50% inhibitory concentration (IC50) in [13] came to 770 nM; in [14], 330 nM; in assay [15] it was 190 nM; in assay [16] it was 750 nM; in assay [17], 4450 nM; in [18], 620 nM.
As to `O=C(N/N=C1\CCc2cccc(O)c21)c1cccc(S(=O)(=O)N2CCOCC2)c1`, the IC50 in assay [1] came out at 920 nM; in assay [2], 2010 nM; in assay [3] it was 2960 nM; in assay [4] it was 810 nM; in assay [5] it was 360 nM; in assay [6], 300 nM. The IC50 in [7] worked out at 680 nM; in assay [8] it was 3110 nM; in assay [9], 2490 nM; in assay [10] it was 390 nM; in assay [11], 790 nM; in assay [12], 1340 nM. Further, the IC50 in assay [13] worked out at 340 nM; in [14], 250 nM; in assay [15], 220 nM; in assay [16], 410 nM; in [17], 1000 nM; in [18], 220 nM.
